Measured values reported in patent US20250011288A1 (BRISTOL-MYERS SQUIBB COMPANY, priority 2021, published 2025).

molecular target: T1, human RXFP1 (Homo sapiens, UniProt Q9HBX9); test: human RXFP1 (hRXFP1) HEK293 cAMP assay (HTRF); assay type: cell-based; details: HEK293 cells stably expressing human RXFP1, 30 min at room temperature
T1 construct: expressed in transfected cells
T1 sequence (Q9HBX9 1-757): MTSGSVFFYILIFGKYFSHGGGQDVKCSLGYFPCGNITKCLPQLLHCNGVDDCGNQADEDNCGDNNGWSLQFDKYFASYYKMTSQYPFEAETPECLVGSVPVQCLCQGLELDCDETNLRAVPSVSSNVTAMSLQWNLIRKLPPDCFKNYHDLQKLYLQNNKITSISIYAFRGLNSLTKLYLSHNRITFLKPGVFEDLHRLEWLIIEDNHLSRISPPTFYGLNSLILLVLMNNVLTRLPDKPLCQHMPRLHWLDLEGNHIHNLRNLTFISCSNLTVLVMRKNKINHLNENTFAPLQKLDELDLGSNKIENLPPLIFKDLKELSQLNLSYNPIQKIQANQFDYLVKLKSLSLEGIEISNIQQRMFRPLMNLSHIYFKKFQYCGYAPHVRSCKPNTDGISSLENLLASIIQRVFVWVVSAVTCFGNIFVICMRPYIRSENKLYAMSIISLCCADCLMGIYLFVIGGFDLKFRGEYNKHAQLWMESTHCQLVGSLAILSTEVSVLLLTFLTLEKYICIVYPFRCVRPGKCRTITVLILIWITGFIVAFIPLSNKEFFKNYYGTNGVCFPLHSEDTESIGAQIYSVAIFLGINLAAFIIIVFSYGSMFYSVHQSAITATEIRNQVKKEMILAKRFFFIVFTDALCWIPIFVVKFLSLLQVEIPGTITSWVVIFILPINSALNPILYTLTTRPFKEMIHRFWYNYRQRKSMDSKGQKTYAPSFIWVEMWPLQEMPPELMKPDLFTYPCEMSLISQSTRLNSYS
Summary of the method: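 HEK293 cells stably expressing human RXFP1 (1500 cells/well) in HBSS/20 mM HEPES/0.05% BSA/0.5 mM IBMX, treated with compound (0.010 nM–50 µM final, 2% DMSO) for 30 min at room temperature. Intracellular cAMP read by HTRF; potency from 4-parameter logistic fit of cAMP versus concentration.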

Structure (SMILES)	EC50
COc1ncc(-c2cc([C@H](O)C(F)(F)F)ccc2F)cc1C(=O)N[C@H]1[C@@H](C(=O)Nc2ccc(F)c(C(F)(F)F)c2)[C@H]2CC[C@@H]1/C2=C\C1CCCC1 [Example 163, N-[(1R,2R,3S,4R, 7Z)-7-(cyclopentyl-methylidene)-3-{[4-fluoro-3-(trifluoromethyl)phenyl]carbamoyl}bicyclo[2.2.1]heptan-2-yl]-5-{2-fluoro-5-[(1S)-2,2,2-trifluoro-1-hydroxyethyl]phenyl}-2-methoxypyridine-3-carboxamide]	1 nM
COc1ncc(-c2cc([C@H](OC(=O)NC3CCC3)C(F)(F)F)ccc2F)cc1C(=O)N[C@@H]1C2CCC(/C2=C/C2CC(F)(F)C2)[C@@H]1C(=O)Nc1ccc(F)c(C(F)(F)F)c1 (stereo partly drawn) [Example 169, (1S)-1-[3-(5-{[(2R,3S,7Z)-7-[(3,3-difluorocyclobutyl)methylidene]-3-{[4-fluoro-3-(trifluoromethyl)phenyl]carbamoyl}bicyclo[2.2.1]heptan-2-yl]carbamoyl}-6-methoxypyridin-3-yl)-4-fluorophenyl]-2,2,2-trifluoroethyl N-cyclobutyl-carbamate]	7.9 nM
COc1ncc(C2=NOC3COCC23)cc1C(=O)N[C@H]1[C@@H](C(=O)N[C@H](C)C2(C)CC2)[C@H]2CC[C@@H]1/C2=C\c1csc(C(F)F)n1 (stereo partly drawn) [Example 100, N-((1R,2R,3S,4R,Z)-7-((2-(difluoromethyl)thiazol-4-yl)methylene)-3-(((R)-1-(1-methylcyclopropyl)ethyl)carbamoyl)bicyclo[2.2.1]heptan-2-yl)-2-methoxy-5-(3a,4,6,6a-tetrahydrofuro[3,4-d]isoxazol-3-yl)nicotinamide]	3.4 nM
COc1ncc(C2=NOC3CC(CO)CC23)cc1C(=O)N[C@@H]1C2CCC(/C2=C/c2csc(C)n2)[C@@H]1C(=O)N[C@H](C)C1(C)CC1 (stereo partly drawn) [Example 99]	3.2 nM
CC1(C)Cc2cc(C3=NOC4COCC34)cc(C(=O)N[C@@H]3C4CCC(/C4=C/C4CC4)[C@@H]3C(=O)Nc3ccc(F)c(C(F)(F)F)c3)c2O1 (stereo partly drawn) [Example 145, 5-{3aH,4H,6H,6aH-furo[3,4-d][1,2]oxazol-3-yl}-N-[(1R,2R,3S, 4R,7Z,)-7-(cyclopropyl-methylidene)-3-{[4-fluoro-3-(trifluoromethyl)phenyl]carbamoyl}bicyclo[2.2.1]heptan-2-yl]-2,2-dimethyl-2,3-dihydro-1-benzofuran-7-carboxamide]	3 nM
CC(C)(O)COc1ccc2c(C(=O)N[C@@H]3C4CCC(/C4=C/C(F)(F)F)[C@@H]3C(=O)Nc3ccc(F)c(C(F)(F)F)c3)nn(C(F)F)c2c1 (stereo partly drawn) [Example 57, 1-(difluoromethyl)-N-[(2R,3S,7Z)-3-{[4-fluoro-3-(trifluoromethyl)phenyl]carbamoyl}-7-(2,2,2-trifluoro-ethylidene)bicyclo[2.2.1]heptan-2-yl]-6-(2-hydroxy-2-methylpropoxy)-1H-indazole-3-carboxamide]	3900 nM
COc1cc2c(cc1C(=O)N[C@@H]1C3CCC(/C3=C/C3CC3)[C@@H]1C(=O)Nc1ccc(F)c(C(F)(F)F)c1)CCN(CCS(C)(=O)=O)C2 (stereo partly drawn) [Example 92]	4800 nM
COc1ncc(C2=NOC3CC(CO)CC23)cc1C(=O)N[C@H]1[C@@H](C(=O)Nc2ccc(F)c(C(F)(F)F)c2)[C@H]2CC[C@@H]1/C2=C\c1cscn1 (stereo partly drawn) [Example 97, N-((1R,2R,3S,4R,Z)-3-((4-fluoro-3-(trifluoromethyl)phenyl)carbamoyl)-7-(thiazol-4-ylmethylene)bicyclo [2.2.1]heptan-2-yl)-5-(5-(hydroxymethyl)-3a,5,6,6a-tetrahydro-4H-cyclopenta[d]isoxazol-3-yl)-2-methoxy-nicotinamide]	3.1 nM
Cn1cc(Br)cc(C(=O)N[C@@H]2C3CCC(/C3=C/C3CC3)[C@@H]2C(=O)Nc2ccc(F)c(C(F)(F)F)c2)c1=O (stereo partly drawn) [Example 18, 5-bromo-N-[(2R,3S,7Z)-7-(cyclopropyl-methylidene)-3-{[4-fluoro-3-(trifluoromethyl)phenyl]carbamoyl}bicyclo [2.2.1]heptan-2-yl]-1-methyl-2-oxo-1,2-dihydropyridino-3-carboxamide]	2100 nM
COc1ncc(C(=O)NCC2(S(C)(=O)=O)CC2)cc1C(=O)N[C@H]1[C@@H](C(=O)N[C@H](C)C2(C)CC2)[C@H]2CC[C@@H]1/C2=C\C1CC1 [Example 149, N3-[(1R,2R,3S,4R, 7Z)-7-(cyclopropyl-methylidene)-3-{[(1R)-1-(1-methylcyclopropyl)ethyl]carbamoyl}bicyclo[2.2.1]heptan-2-yl]-N5-[(1-methanesulfonylcyclopropyl)methyl]-2-methoxypyridine-3,5-dicarboxamide]	2.7 nM
COc1ncc(C2=NOC3CC(CO)CC23)cc1C(=O)N[C@H]1[C@@H](C(=O)Nc2ccc(F)c(C(F)(F)F)c2)[C@H]2CC[C@@H]1/C2=C\C1CCCC1 (stereo partly drawn) [Example 172, N-[(1R,2R,3S,4R, 7Z)-7-(cyclopentyl-methylidene)-3-{[4-fluoro-3-(trifluoromethyl)phenyl]carbamoyl}bicyclo[2.2.1]heptan-2-yl]-5-[5-(hydroxymethyl) 3aH,4H,5H,6H, 6aH-cyclopenta[d][1,2]oxazol-3-yl]-2-methoxypyridine-3-carboxamide]	4.3 nM
COc1ncc(C2=NOC3CC(CO)CC23)cc1C(=O)N[C@H]1[C@@H](C(=O)N[C@H](C)C2(C)CC2)[C@H]2CC[C@@H]1/C2=C\C1CC1 (stereo partly drawn) [Example 105, N-((1R,2R,3S,4R,Z)-7-(cyclopropyl-methylene)-3-(((R)-1-(1-methylcyclopropyl)ethyl)carbamoyl)bicyclo[2.2.1]heptan-2-yl)-5-(5-(hydroxymethyl)-3a,5,6,6a-tetrahydro-4H-cyclopenta[d]isoxazol-3-yl)-2-methoxynicotinamide]	1.2 nM
COc1ncc(C2=NOC3CN(CCS(C)(=O)=O)CC23)cc1C(=O)N[C@H]1[C@@H](C(=O)Nc2ccc(F)c(C(F)(F)F)c2)[C@H]2CC[C@@H]1/C2=C\C1CC1 (stereo partly drawn) [Example 178, N-[(1R,2R,3S,4R, 7Z)-7-(cyclopropyl-methylidene)-3-{[4-fluoro-3-(trifluoromethyl)phenyl]carbamoyl}bicyclo[2.2.1]heptan-2-yl]-5-[5-(2-methanesulfonylethyl)-3aH,4H,5H,6H, 6aH-pyrrolo[3,4-d][1,2]oxazol-3-yl]-2-methoxypyridine-3-carboxamide]	1.6 nM
COc1cc2c(cc1C(=O)N[C@@H]1C3CCC(/C3=C/C3CC3)[C@@H]1C(=O)Nc1ccc(F)c(C(F)(F)F)c1)CN(CCCO)CC2 (stereo partly drawn) [Example 86, N-[(1R,2R,3S,4R)-7-(cyclopropyl-methylidene)-3-{[4-fluoro-3-(trifluoromethyl)phenyl]carbamoyl}bicyclo[2.2.1]heptan-2-yl]-2-(3-hydroxypropyl)-6-methoxy-1,2,3,4-tetrahydroiso-quinoline-7-carboxamide]	240 nM
COc1ncc(C2=NOC3CC(CO)CC23)cc1C(=O)N[C@H]1[C@@H](C(=O)Nc2ccc(F)c(C(F)(F)F)c2)[C@H]2CC[C@@H]1/C2=C\c1csc(C)n1 (stereo partly drawn) [Example 120, N-((1R,2R,3S,4R,Z)-3-((4-fluoro-3-(trifluoromethyl)phenyl)carbamoyl)-7-((2-methylthiazol-4-yl)methylene)bicyclo [2.2.1]heptan-2-yl)-5-(5-(hydroxymethyl)-3a,5,6,6a-tetrahydro-4H-cyclopenta[d]isoxazol-3-yl)-2-methoxynicotinamide]	4.8 nM
CCCc1cnc(OC)c(C(=O)N[C@@H]2C3CCC(/C3=C/C(F)(F)F)[C@@H]2C(=O)Nc2ccc(F)c(C(F)(F)F)c2)n1 (stereo partly drawn) [Example 52, N-[(2R,3S,7Z)-3-{[4-fluoro-3-(trifluoromethyl)phenyl]carbamoyl}-7-(2,2,2-trifluoroethylidene)bicyclo[2.2.1]heptan-2-yl]-3-methoxy-6-propylpyrazine-2-carboxamide]	1300 nM
COc1ncc(-c2cc(C(=O)O)ccc2F)cc1C(=O)N[C@@H]1C2CCC(/C2=C/c2ccccc2)[C@@H]1C(=O)Nc1ccc(F)c(C(F)(F)F)c1 (stereo partly drawn) [Example 25, 4-Fluoro-3-(5-{[(2R,3S,7Z)-3-{[4-fluoro-3-(trifluoromethyl)phenyl]carbamoyl}-7-(phenylmethylidene)bicyclo[2.2.1]heptan-2-yl]carbamoyl}-6-methoxypyridin-3-yl)benzoic acid]	33 nM
COc1ncc(-c2cc(C(=O)O)ccc2F)cc1C(=O)N[C@@H]1C2CCC(C2=C(C)C)[C@@H]1C(=O)Nc1ccc(F)c(C(F)(F)F)c1 (stereo partly drawn) [Example 21, 4-fluoro-3-(5-{[(2R,3S)-3-{[4-fluoro-3-(trifluoromethyl)phenyl]carbamoyl}-7-(propan-2-ylidene)bicyclo[2.2.1]heptan-2-yl]carbamoyl}-6-methoxypyridin-3-yl)benzoic acid]	80 nM
